Experimental data from patent US20260021103A1, “IKZF2 AND CK1-ALPHA DEGRADING COMPOUNDS AND USES THEREOF” (President and Fellows of Harvard College, priority 2022, published 2026).

What was measured:
[1] = target: T1, IKZF1 (Homo sapiens, UniProt Q13422+Q96SW2); assay: Flow cytometry for measuring degradation, HEK293T GFP-POI reporter cells (IKZF1); assay type: cell-based; details: 24 h, HEK293T GFP reporter
T1 construct: expressed in transfected cells; host or cells: HEK293T (lentiviral transduction, puromycin selection, FACS sorting)

[2] = target: T2, GSPT1 (Homo sapiens, UniProt P15170+Q96SW2); assay: Western blot of NCI-H1048 cells for GSPT1; assay type: cell-based; details: 24 h
[3] = tested on: MLL-AF9 Crbn^1391V cells; assay: Survival of Crbn^1391V mice transplanted with MLL-AF9 Crbn^1391V cells; assay type: in vivo; details: 223 mg/kg weekly
[4] = In vitro metabolic stability; assay type: in vitro ADME; details: read-out: in vitro metabolic stability t1/2
[5] = target: T2, GSPT1; assay: Flow cytometry for measuring degradation, HEK293T GFP-POI reporter cells (GSPT1); assay type: cell-based; parameters: expressed in transfected cells; host or cells: HEK293T; details: 24 h, HEK293T GFP reporter
[6] = tested on: MLL-AF9 Crbn^1391V cells; assay: Survival of BL6 mice transplanted with MLL-AF9 Crbn^1391V cells; assay type: in vivo; details: 223 mg/kg once per week
Method: Generation of MLL-AF9 Crbn^1391V leukemic cells: Lin-Sca+ Kit+ (LSK) cells were isolated from bone marrow cells of wildtype or Crbn^1391V mice that were 6 to 8 weeks old. Briefly, bone marrow cells were enriched for c-Kit positive cells by incubating with CD117/c-Kit microbeads and then processed through the autoMACS Pro Separator (Miltenyi Biotec), following the manufacturer's instructions. CKit enriched cells were stained with Lineage antibody cocktail (CD3, CD4, CD8, Gr1, B220, CD19, TER119 conjugated with PeCy5), Scal-Pac Blue, CD34-FITC, SLAM-APC, CD48-PE, and c-KIT-APC-Cy7. After staining, cells were sorted for LSK cells using a BD FACS Aria II instrument. Sorted LSK cells were incubated overnight in Stemspan SFEM medium (Stem Cell Technologies) with 10 ng/ml IL-3, 10 ng/ml IL-6, 50 ng/ml SCF. 10 ng/ml thrombopoietin (TPO), and 20 ng/ml FLT-3 ligand. […]
In vivo drug administration in MLL-AF9 and PDX mouse model: A total of 250,000 of MLL-AF9 BM secondary mouse leukemia cells were injected retroorbitally into 6-8 weeks-old female C57BL/6 recipient mice that has been sublethally irradiated at 450 cGy. […] Mice weight was monitored every day to check for toxicity. Mice were sacrificed when moribund, and organ weights were measured for disease burden. […] Plasma was extracted from each mouse after indicated time and DEG-35 in plasma was measured using HPLC. […]

[7] = tested on: DLBCL cell line OCI-LY3; assay: 5-day MTT assay in OCI-LY3 cells; assay type: cell-based; details: Homo sapiens, 120 h; OCI-LY3, 5-day MTT assay
Method: (§1) Viability Assay: 10,000 cells (e.g., MOLM-13 cells, MLL-AF9 leukemic cells or normal BM cells) were plated onto flat-bottom 96-well plates in media with increasing concentration of compound up to […]. […] For measuring viability, Cell-Titer Glo kit (Promega) or MTT kit was used following manufacturer's instructions. For Cell-Titer Glo assay, cells were cooled to room temperature for 20-30 min, 100 μL of the cultured cells were transferred to opaque-white bottom 96-well plates and mixed with 100 μL of Cell-Titer Glo reagent. The mixture was incubated for 15 min at room temperature and read using a Synergy H1 Hybrid reader (BioTek) for luminescence. Data was normalized as percentage viability and graphed by non-linear regression curves in Graph Pad PRISM 7.0.

[8] = target: T3, IKZF2 (Homo sapiens, UniProt Q96SW2+Q9UKS7); assay: Flow cytometry for measuring degradation, HEK293T GFP-POI reporter cells (IKZF2); assay type: cell-based
T3 construct: expressed in transfected cells; host or cells: HEK293T (lentiviral transduction, puromycin selection, FACS sorting)

[9] = Toxicity in hematopoietic system of Crbn^1391V mice; assay type: in vivo; details: four rounds, 223 mg/kg weekly
Method: (§2) In vivo drug administration in MLL-AF9 and PDX mouse model: A total of 250,000 of MLL-AF9 BM secondary mouse leukemia cells were injected retroorbitally into 6-8 weeks-old female C57BL/6 recipient mice that has been sublethally irradiated at 450 cGy. For AML PDX model, 1 million PDX cells were transplanted by intravenous injection into 8-10 weeks old female NSG mice that had been sublethally irradiated at 200 rads 24 hr before transplant. […] DEG-77 was treated at 223 mg/kg in DMSO in 50 ul volume. Mice weight was monitored every day to check for toxicity. Mice were sacrificed when moribund, and organ weights were measured for disease burden. Spleen and bone marrow cells were isolated and processed for western blot analysis. All animal studies were performed on animal protocols approved by the Institutional Animal Care and Use Committee (IACUC) at Memorial Sloan Kettering Cancer Center. […] Plasma was extracted from each mouse after indicated time and DEG-35 in plasma was measured using HPLC. For examining the toxicity of DEG-77 in the hematopoietic system of Crbn^1391V mice, four rounds of DMSO or 223 mg/kg DEG-77 was treated in 8-12 weeks old female Crbn^1391V mice. Mice were injected once a week and were sacrificed 4 weeks later for blood analysis using the Element HT5 Hematology Analyzer (HESKA) and analysis of the hematopoietic cells by flow cytometry.

[10] = target: T4, CK1α (Homo sapiens, UniProt P48729+Q96SW2); assay: Flow cytometry for measuring degradation, HEK293T GFP-POI reporter cells (CK1α); assay type: cell-based
T4 construct: expressed in transfected cells; host or cells: HEK293T (lentiviral transduction, puromycin selection, FACS sorting)

[11] = tested on: small cell lung cancer cell line NCI-H1048; assay: 5-day MTT assay in NCI-H1048 cells; assay type: cell-based; details: NCI-H1048, 5-day MTT assay
Method: as §1

[12] = tested on: MOLM-13 cells; assay: Survival of NSG mice transplanted with MOLM-13 cells; assay type: in vivo; details: MOLM-13 transplanted mice, 223 mg/kg weekly
[13] = tested on: AML PDX cells; assay: AML PDX model in NSG mice; assay type: in vivo
Method: as §2

[14] = tested on: MOLM-13 cells; assay: Cell viability assay in MOLM-13 cells; assay type: cell-based; details: Homo sapiens, read-out: IC50 (cytotoxicity)
Method: Viability Assay: 10,000 cells (e.g., MOLM-13 cells, MLL-AF9 leukemic cells or normal BM cells) were plated onto flat-bottom 96-well plates in media with increasing concentration of compound up to 100 µM. Cells were cultured for 72 h at 37° C. in a 5% CO2 incubator. For measuring viability, Cell-Titer Glo kit (Promega) or MTT kit was used following manufacturer's instructions. For Cell-Titer Glo assay, cells were cooled to room temperature for 20-30 min, 100 μL of the cultured cells were transferred to opaque-white bottom 96-well plates and mixed with 100 μL of Cell-Titer Glo reagent. The mixture was incubated for 15 min at room temperature and read using a Synergy H1 Hybrid reader (BioTek) for luminescence. Data was normalized as percentage viability and graphed by non-linear regression curves in Graph Pad PRISM 7.0.

[15] = Pharmacokinetics, plasma concentration in mice; details: male, CD1, mouse, ip, single intraperitoneal injection at 5 mg/kg, read-out: in vivo half-life t1/2 (converted)
Method: as §2

[16] = tested on: endometrioid ovarian cancer cell line A2780; assay: 5-day MTT assay in A2780 cells; assay type: cell-based; details: Homo sapiens, 120 h; A2780, 5-day MTT assay
Method: as §1

[17] = In vitro solubility in DMSO; assay type: physicochemical; details: DMSO
[18] = 100 nM, 24 h, HEK293T GFP reporter
[19] = 1 μM, 24 h, HEK293T GFP reporter

T3 sequence (Q9UKS7 whole entry): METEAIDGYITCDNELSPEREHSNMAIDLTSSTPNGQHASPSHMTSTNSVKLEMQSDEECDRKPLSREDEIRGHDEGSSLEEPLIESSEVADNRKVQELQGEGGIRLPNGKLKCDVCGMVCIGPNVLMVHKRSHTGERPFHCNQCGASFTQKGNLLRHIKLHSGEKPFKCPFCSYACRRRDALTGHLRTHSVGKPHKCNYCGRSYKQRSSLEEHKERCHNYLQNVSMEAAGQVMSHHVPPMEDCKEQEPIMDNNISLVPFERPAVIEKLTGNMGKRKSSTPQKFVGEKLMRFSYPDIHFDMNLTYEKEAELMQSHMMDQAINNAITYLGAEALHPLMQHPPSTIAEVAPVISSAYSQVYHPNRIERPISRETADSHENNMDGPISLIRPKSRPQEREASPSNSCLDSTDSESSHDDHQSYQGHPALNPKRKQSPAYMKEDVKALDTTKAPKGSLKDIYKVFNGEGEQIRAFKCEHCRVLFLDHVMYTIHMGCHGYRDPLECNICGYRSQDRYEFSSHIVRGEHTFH
T3 sequence (Q96SW2 whole entry): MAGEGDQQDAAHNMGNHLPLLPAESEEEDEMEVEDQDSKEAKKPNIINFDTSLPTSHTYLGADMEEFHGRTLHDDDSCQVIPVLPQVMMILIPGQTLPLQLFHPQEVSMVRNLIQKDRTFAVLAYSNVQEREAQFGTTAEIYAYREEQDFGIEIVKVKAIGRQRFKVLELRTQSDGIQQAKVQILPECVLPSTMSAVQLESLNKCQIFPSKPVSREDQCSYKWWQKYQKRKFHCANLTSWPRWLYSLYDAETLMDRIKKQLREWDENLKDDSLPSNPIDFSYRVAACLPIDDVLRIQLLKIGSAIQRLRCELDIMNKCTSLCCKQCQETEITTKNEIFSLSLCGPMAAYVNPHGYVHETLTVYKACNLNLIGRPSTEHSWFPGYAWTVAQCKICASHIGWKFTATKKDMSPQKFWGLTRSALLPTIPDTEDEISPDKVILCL
T3 sequence (Q16531 whole entry partner): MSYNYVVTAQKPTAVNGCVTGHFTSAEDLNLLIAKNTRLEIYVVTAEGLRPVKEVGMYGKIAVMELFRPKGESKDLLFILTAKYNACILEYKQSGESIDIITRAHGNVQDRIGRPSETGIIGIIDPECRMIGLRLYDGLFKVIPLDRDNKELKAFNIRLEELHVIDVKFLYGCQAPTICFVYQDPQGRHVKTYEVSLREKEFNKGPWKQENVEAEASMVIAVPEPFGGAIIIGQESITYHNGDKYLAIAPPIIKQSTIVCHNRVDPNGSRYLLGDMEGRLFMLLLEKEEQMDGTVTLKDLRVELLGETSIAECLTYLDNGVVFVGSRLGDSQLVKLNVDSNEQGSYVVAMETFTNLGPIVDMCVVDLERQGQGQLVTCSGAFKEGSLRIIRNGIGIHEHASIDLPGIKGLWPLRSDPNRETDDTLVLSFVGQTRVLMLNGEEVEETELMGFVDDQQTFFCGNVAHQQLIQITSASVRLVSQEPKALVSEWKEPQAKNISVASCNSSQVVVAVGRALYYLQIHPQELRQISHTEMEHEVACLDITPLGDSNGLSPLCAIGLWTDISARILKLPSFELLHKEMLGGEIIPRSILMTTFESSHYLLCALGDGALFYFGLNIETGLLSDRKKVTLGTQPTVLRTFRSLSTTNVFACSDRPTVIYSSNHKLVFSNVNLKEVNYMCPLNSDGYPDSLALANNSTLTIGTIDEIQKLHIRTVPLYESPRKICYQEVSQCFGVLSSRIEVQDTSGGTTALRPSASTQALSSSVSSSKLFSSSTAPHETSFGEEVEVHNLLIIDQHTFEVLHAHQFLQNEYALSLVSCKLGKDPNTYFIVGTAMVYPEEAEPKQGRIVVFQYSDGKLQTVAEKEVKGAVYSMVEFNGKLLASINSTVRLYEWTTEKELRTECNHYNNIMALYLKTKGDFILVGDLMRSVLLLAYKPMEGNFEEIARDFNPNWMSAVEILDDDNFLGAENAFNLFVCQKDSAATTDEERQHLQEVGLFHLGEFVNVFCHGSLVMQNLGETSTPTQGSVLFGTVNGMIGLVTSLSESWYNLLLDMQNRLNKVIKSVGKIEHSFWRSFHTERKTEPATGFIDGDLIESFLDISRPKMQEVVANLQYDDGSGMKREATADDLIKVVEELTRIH
T2 sequence (P15170 whole entry): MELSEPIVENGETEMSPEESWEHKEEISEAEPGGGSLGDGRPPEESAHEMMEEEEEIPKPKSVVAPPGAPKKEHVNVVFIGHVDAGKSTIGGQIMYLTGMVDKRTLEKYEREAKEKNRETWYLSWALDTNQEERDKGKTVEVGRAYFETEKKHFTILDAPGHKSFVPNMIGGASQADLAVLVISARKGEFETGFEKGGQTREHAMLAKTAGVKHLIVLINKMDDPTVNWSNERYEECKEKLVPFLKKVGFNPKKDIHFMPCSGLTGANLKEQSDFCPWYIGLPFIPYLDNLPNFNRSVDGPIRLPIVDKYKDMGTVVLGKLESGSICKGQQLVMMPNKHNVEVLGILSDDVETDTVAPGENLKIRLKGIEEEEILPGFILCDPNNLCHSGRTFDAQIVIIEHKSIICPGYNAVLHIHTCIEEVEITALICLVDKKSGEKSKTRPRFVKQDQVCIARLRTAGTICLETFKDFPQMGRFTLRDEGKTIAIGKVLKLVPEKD
T2 sequence (Q96SW2 whole entry): as the sequence (Q96SW2 whole entry) above
T2 sequence (Q16531 whole entry partner): as the sequence (Q16531 whole entry partner) above
T4 sequence (P48729 whole entry): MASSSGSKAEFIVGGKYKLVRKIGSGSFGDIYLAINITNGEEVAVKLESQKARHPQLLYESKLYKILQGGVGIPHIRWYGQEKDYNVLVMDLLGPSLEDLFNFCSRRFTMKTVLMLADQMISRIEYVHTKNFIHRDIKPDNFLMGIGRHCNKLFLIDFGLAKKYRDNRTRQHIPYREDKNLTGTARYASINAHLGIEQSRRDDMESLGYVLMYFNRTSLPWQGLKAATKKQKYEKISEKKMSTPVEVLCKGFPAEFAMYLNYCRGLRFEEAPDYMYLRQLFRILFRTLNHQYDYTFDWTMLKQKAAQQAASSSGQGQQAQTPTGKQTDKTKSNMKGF
T4 sequence (Q96SW2 whole entry): as the sequence (Q96SW2 whole entry) above
T4 sequence (Q16531 whole entry partner): as the sequence (Q16531 whole entry partner) above
T1 sequence (Q13422 whole entry): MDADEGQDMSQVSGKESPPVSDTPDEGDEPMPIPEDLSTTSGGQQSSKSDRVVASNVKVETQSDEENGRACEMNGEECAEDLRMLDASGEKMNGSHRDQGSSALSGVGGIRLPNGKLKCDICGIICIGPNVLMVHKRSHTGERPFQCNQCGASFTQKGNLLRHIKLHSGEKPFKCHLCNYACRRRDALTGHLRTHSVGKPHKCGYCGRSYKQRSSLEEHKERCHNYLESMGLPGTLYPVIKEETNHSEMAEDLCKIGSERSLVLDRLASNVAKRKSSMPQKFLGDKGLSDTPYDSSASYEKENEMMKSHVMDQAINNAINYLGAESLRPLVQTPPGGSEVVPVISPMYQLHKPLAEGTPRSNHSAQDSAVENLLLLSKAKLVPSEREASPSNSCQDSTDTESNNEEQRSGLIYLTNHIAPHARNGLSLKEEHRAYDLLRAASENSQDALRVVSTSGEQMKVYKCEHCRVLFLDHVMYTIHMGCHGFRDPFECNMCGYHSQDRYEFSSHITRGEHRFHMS
T1 sequence (Q96SW2 whole entry): as the sequence (Q96SW2 whole entry) above
T1 sequence (Q16531 whole entry partner): as the sequence (Q16531 whole entry partner) above

COc1cccc2c1OCC(C(=O)Nc1ccc3c(c1)CN(C1CCC(=O)NC1=O)C3=O)=C2 (centres unmarked) [DEG-77, N-(2-(2,6-dioxopiperidin-3-yl)-1-oxoisoindolin-5-yl)-8-methoxy-2H-chromene-3-carboxamide]
IKZF1% degradation at 100 nM ([1]; 100 nM): 10.7 ± 1.1%
IKZF1% degradation at 1 μM ([1]; 1 μM): 29 ± 0.9%
GSPT1 degradation by Western blot (in words) [2]: did not affect protein levels
survival (in words) [3]: significant increase in survival
half-life [4]: > 6 h
GSPT1% degradation at 100 nM ([5]; 100 nM): 3.7 ± 1.3%
GSPT1% degradation at 1 μM ([5]; 1 μM): 2.6 ± 1%
total body weight (in words) [6]: without total body weight loss
survival ([6]; vehicle treated mice 35 days): 66 days
EC50 [7]: 14 nM
DC50 [8]: 15.3 nM
IKZF2% degradation at 100 nM [8, 18]: 82.3 ± 0.6%
IKZF2% degradation at 1 μM [8, 19]: 94.4 ± 0.1%
WBC counts (in words) [9]: modest reduction of WBC counts
platelets and RBC counts (in words) [9]: remained unchanged
CK1α % degradation at 100 nM [10, 18]: 68.6 ± 1%
CK1α % degradation at 1 μM [10, 19]: 72.7 ± 0.8%
DC50 ([10]; read-out: DC50 CK1α): 10 nM
sensitivity of NCI-H1048 cells (in words) [11]: selectively sensitive to DEG-35 and not DEG-77
survival (in words) [12]: increased survival
survival (in words) ([13]; PDX AML model, weekly from 4 weeks post-transplant, 223 mg/kg): significant extension of survival
engraftment of PDX cells in the bone marrow ([13]; after a single injection, >85% prior to treatment): around 40%
IC50 [14]: 4 nM
half-life [15]: 8 h
EC50 [16]: 27 nM
increase in solubility in DMSO compared to DEG-35 [17]: 10 fold
